Reference: PMC12691742, “Anti-Cancer Outcome of Glucocorticoid Receptor Transrepression by Synephrine Derivatives in Hematological Malignancies” (International Journal of Molecular Sciences, 2025)
Read-outs that look alike come from different tables or passages of the source.

Tests used:
GR = biological target: T1, GR (Homo sapiens, UniProt P04150); assay: GR radioligand binding assay, competition with [3H]Dex in K562 cells
T1 construct: endogenous in cells; host or cells: K562
T1 sequence (P04150 1-777): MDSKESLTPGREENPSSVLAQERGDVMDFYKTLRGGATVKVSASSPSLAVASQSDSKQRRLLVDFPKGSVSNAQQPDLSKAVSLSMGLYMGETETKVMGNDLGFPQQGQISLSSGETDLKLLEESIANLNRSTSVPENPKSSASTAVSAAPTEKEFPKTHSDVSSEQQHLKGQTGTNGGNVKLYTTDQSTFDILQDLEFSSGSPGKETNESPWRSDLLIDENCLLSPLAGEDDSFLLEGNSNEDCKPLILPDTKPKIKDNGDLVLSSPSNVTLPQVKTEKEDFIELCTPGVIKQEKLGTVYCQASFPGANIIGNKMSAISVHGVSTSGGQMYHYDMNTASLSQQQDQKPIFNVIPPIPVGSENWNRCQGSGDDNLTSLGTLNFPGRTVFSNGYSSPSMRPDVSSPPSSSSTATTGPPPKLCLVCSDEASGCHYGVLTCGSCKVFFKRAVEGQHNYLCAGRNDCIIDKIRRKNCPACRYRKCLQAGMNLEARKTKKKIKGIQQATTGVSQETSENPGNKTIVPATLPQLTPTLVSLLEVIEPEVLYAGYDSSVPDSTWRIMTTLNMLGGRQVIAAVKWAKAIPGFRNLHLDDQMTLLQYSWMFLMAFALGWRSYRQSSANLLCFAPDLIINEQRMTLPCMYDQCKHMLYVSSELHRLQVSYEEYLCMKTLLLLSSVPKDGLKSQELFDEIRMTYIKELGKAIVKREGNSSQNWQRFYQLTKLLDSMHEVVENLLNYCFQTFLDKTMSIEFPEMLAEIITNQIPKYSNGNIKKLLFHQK
Protocol: (A,B). […] The stability of the complex was simulated using molecular dynamics in the GROMACS program. (C) GR binding affinity was estimated using a radioligand binding assay. […] Cell lysate radioactivity was measured using a RackBeta 1215 LC (LKB Wallac, Turku, Finland) spectrometer for 4 min. […] The experiments were performed in triplicate (n = 3).
After 90 min of incubation, the cells were washed twice by centrifugation in cold serum-free medium (1500 rpm, 5 min). The cells were then lysed with RIPA buffer (50 mM Tris (pH 8.0), 150 mM NaCl, 1 mM ethylenediaminetetraacetic acid, 0.1% sodium dodecyl sulfate, 0.5% sodium deoxycholate, 1% triton-X100, 10% glycerin, and protease inhibitor) for 20 min. Lysates were transferred to scintillation liquid, and radioactivity was measured using a RackBeta 1215 LC spectrometer for 4 min. […] IC50 was determined using GraphPad Prism software, Ver.7.0. […] “Top” meant the highest value in dpm and was equal to 100%, while the “bottom” was considered as the lowest value (0%). […] The IC50 values for each ligand were determined by plotting these curves. The experiments were performed in triplicate.

[1] = system: GR phosphorylated by Ser211 in K562 and Granta cells; assay: Western blot of nuclear phospho-GR (Ser211); format: cell-based; details: 10 h; Dex 10 µM, 4S-C2 50 µM, 8S-E3 50 µM, 10S-E2 15 µM, 13S-G2 25 µM
Protocol: (§1) Figure 3 Effects of synephrine derivatives on GR transactivation in Granta lymphoma and K562 leukemia cells. (A) Q-PCR analysis of FKBP51, GILZ, and DDIT4 mRNA expression in K562 and Granta cells. […] The Q-PCR results were normalized to the expression of the housekeeping gene RPL27 and are presented as fold changes compared to the control. The mean ± SD was calculated for three individual samples/condition (n = 3). Statistically significant differences compared to the control: * p < 0.05, ** p < 0.01. (B) The levels of the nuclear fraction of phospho-GR (Ser211) were determined using Western blot analysis (n = 3; characteristic images are presented in the figure). Histone H3 was used as a loading control.
Western blot analysis was performed as previously described. Proteins were resolved using SDS-PAGE. Membranes were blocked with 5% nonfat milk solution and then incubated with primary antibodies against phosphorylated GR (pGR, Ser211) (“Santa Cruz Biotechnology”, Santa Cruz, CA, USA) overnight at 4 °C. To verify equal protein loading and adequate transfer, the membranes were probed with Histone H3 antibodies (“Cell Signaling”, Boston, MA, USA). Goat anti-rabbit IgGs (“Jackson Immuno Research”, West Grove, PA, USA) were used as secondary antibodies. Signals were detected using ECL reagent and an ImageQuant LAS4000 system (“GE HealthCare”, Chicago, IL, USA). ImageJ 1.54h software was used for densitometry. The experiments were performed in triplicate.
7 K562, pGR nuclear 5 Granta, pGR nuclear
Supplementary Figure S 22. Quantification of Western blot analysis. K562 and Granta cells […]
μM) and 13S-G2 (25 μ M) for 10 h. Quantification of Western blot anal ysis of p- GR protein levels was done usin g Im a ge J f ree so ftwar e. Statisticall y significant diff eren ces as compared to control: […]

[2] = system: NF-kB activity in K562 cells; assay: NF-kB.Luc reporter assay in K562 cells; format: cell-based; details: 5 h, 4S-C2 10 µM
Protocol: (§2) We analyzed GR TR function using an NF-kB.Luc reporter assay with the irritating inflammatory agent phorbol 13-acetate 12-myristate (TPA) as an inducer of NF-kB signaling and positive control.
Figure 4 Effects of synephrine derivatives on GR transrepression in Granta lymphoma and K562 leukemia cells. (A) K562 and Granta cells stably infected with the lentiviruses bearing the NF-kB luciferase reporter. Cells were incubated for 5 h with the solvent (control), TPA (5 ng/mL), 4S-C2 (10 µM), 8S-E3 (10 µM), 10S-E2 (1 µM), or 13S-G2 (1 µM). Luciferase activity was determined as described in the Materials and Methods section. (B) IL1-α and IL6 mRNA expression in K562 and Granta cells. […] The mean ± SD was calculated for three individual samples/condition (n = 3). […]
Lentiviral stocks were generated using the lentiviral expression vector NF-kB. […] The infection efficiency exceeded 90% (tracked by GFP fluorescence).
(§3) Cells (10^4 cells/well in a 24-well plate), stably expressing Firefly Luciferase under the NF-kB promoter, were treated for 5 h with TPA (12-O-tetradecanoylphorbol-13-acetate, Boston, MA, USA, 10 ng/mL), 4S-C2 (10 µM), 8S-E3 (10 µM), 10S-E2 (1 µM), 13S-G2 (1 µM), or the vehicle. Luciferase activity was measured as described using a commercial Luciferase Assay (“Promega”, Madison, WI, USA) and Luminometer TD 20/20 (“Turner Design Instruments”, San Jose, CA, USA). […]

[3] = system: NF-kB activity in Granta cells; assay: NF-kB.Luc reporter assay in Granta cells; format: cell-based; details: 5 h, 4S-C2 10 µM, 10S-E2 1 µM
Protocol: as §2
Figure 4 Effects of synephrine derivatives on GR transrepression in Granta lymphoma and K562 leukemia cells. (A) K562 and Granta cells stably infected with the lentiviruses bearing the NF-kB luciferase reporter. Cells were incubated for 5 h with the solvent (control), TPA (5 ng/mL), 4S-C2 (10 µM), 8S-E3 (10 µM), 10S-E2 (1 µM), or 13S-G2 (1 µM). Luciferase activity was determined as described in the Materials and Methods section. (B) IL1-α and IL6 mRNA expression in K562 and Granta cells. Q-PCR results were normalized to the expression of the housekeeping gene RPL27 and are presented as the fold change compared to the control. The mean ± SD was calculated for three individual samples/condition (n = 3). Statistically significant differences compared to the control: * p < 0.05, ** p < 0.01.
Lentiviral stocks were generated using the lentiviral expression vector NF-kB. Luc was encoded with Firefly Luciferase reporters with the NF-kB-responsive promoter of minimal CMV promoter as a control (“System Bioscience”, Moutain View, CA, USA), along with packing plasmids GAG, REV, and VSVg. HEK-293T cells were transfected with the abovementioned plasmids using TurboFect reagent (“Thermo Scientific”, Waltham, MA, USA) according to the manufacturer’s protocol. […] The infection efficiency exceeded 90% (tracked by GFP fluorescence).
as §3

[4] = system: FKBP51, GILZ, DDIT4 mRNA expression in K562 and Granta cells; assay: Q-PCR of GR transactivation marker genes; format: cell-based; details: 4 h (FKBP51, GILZ) or 24 h (DDIT4); Dex 10 µM, 10S-E2 0.1 µM; vs control
Source text: Q-PCR results were confirmed by Western blot analysis of the level of GR phosphorylated by Ser211, known as a crucial protein modification for GR TA realization because of its binding to short cysteine-rich fragments of the coactivator CREB-binding protein [41].
as §1
Total RNA isolation from cell cultures and murine bones, reverse transcription, and Q-PCR were performed as described in [36]. Primers were designed using NCBI Primer-BLAST https://www.ncbi.nlm.nih.gov/tools/primer-blast/, accessed on 25 August 2025 (Supplementary Table S1). Results were normalized to the expression of the housekeeping RPL27 и Rpl27 genes. The experiments were performed in triplicate.

[5] = system: leukemia and lymphoma cells (Granta, K562); set-up: method as in PMID 39858397; details: leukemia and lymphoma cells; read-out: cell viability IC50; cited from earlier work

SMILES: CCCCCCNCC(O)c1ccc(OC)cc1 (stereo not drawn) [4S-C2, 2-(hexylamino)-1-(4-methoxyphenyl)ethanol]
- IC50 (GR): 3.21 µM
- GR phosphorylation level at Ser211 [1]: weak increase
- effect on NF-kB activity [2]: induced it
- effect on NF-kB activity [3]: significantly decreased

SMILES: CCCCCCNCC(O)c1ccc([N+](=O)[O-])cc1 (stereo not drawn) [13S-G2, 2-(hexylamino)-1-(4-nitrophenyl)ethanol]
- IC50 (GR): 0.69 µM
- expression of TA marker genes FKBP51, GILZ, DDIT4 [4]: did not increase the expression
- GR phosphorylation level at Ser211 [1]: weak increase
- IC50 [5]: 13 to 26 µM

SMILES: CNCC(Cl)c1ccc(OC(C)=O)cc1 (stereo not drawn) [CpdA, reference compound]
- IC50 (GR; K562 cells, 0.5 µM [3H]Dex, 90 min, n = 3): 2.84 µM
